Consider three molecules from US20200109362A1 (priority 2016, published 2020).

“Also recorded” adds a separate entry of the source.

Format in all cases: cell-based, human
Series [1] deals with TK6 cells.
Series [2] has as its system MCL-5 cells. As to the kind of experiment: ToxChip (μCC) microcolony toxicity assay, MCL-5 cells.
The test system of series [3] is TK6+MGMT cells. The series is described as follows: ToxChip (μCC) microcolony toxicity assay, TK6+MGMT cells. Conditions: TK6+MGMT vs TK6.

In the case of aflatoxin B1 [AFB1], the “toxicity to TK6 cells” value in series [1] is on record as “relatively unaffected”. In series [2], the “difference in sensitivity between TK6 and MCL-5 cells” value is on record as “more than 2 log”; the “sensitivity of MCL-5 cells compared with TK6 cells” value is “significantly more sensitive”.
With `CC(=O)N1CCN(c2ccc(OCC3COC(Cn4ccnc4)(c4ccc(Cl)cc4Cl)O3)cc2)CC1` (stereo not drawn) [KET, ketoconazole], the “rescue of MCL-5 cells from AFB1 toxicity by co-treatment” value in series [2] was “significant rescue; also recorded: significantly rescues”.
On to `O=NN(CCCl)C(=O)NCCCl` [BCNU, N,N′-bis (2-chloroethyl)-N-nitrosourea], for which, in series [1] (TK6 cells, 10 μM BCNU), the “PF value as % of the control PF” value is 96% and the “PFF (total PF fluorescence) as % of the control PFF” value is 53%. Besides, in series [1] (TK6 cells, BCNU 1 hour, up to 72 hours growth), the “microcolony growth (F/M distribution) after treatment” value is “less able to form larger colonies; also recorded: inhibits growth of colonies”. Further, the “difference in survival between TK6 and TK6+MGMT when challenged” value in series [3] (PFF method) is “approximately 1 log”. For the same molecule, the “difference in sensitivity between TK6 and TK6+MGMT” value in series [3] (μCC, treatment 1 hour at 37° C.) is on record as “significant difference in sensitivity; also recorded: MGMT significantly rescues TK6 cells”.
